Values after ≈ are worked out from the molar mass of the structure shown.

For this series the following is noted: buffer; pH 7.4; 200.0 µM.
The term kinetic solubility denotes solubility judged after dilution from a stock solution rather than from solid. Regarding `CCOC(=O)c1nccnc1C(=O)Nc1cccc(C(F)(F)F)c1`, the solubility (kinetic) was determined as 47.5 µg/mL (≈ 140 µM).

`Cc1ccc(C(=O)CN2CCN(c3ccccn3)CC2)c(C)c1` gave a kinetic solubility of 25.5 µg/mL (≈ 82.4 µM). The compound `O=c1c2ccccc2ncn1-c1cccc(Br)c1` gave a solubility (kinetic) of 5.5 µg/mL (≈ 18.3 µM). As for `Nc1nccc(/C=C/c2c(Cl)cccc2Cl)n1`, the solubility (kinetic) is 1.9 µg/mL (≈ 7.14 µM).

Consider `Cc1ccnc(NCc2ccc(Br)cc2)c1`, for which the solubility (kinetic) is 2.3 µg/mL (≈ 8.3 µM). This solubility kinetic and that of the compound before are within 1.5-fold of each other. With `Cc1cnc([N+](=O)[O-])n1CCOC(=O)c1cccc(F)c1`, the kinetic solubility was more than 44 µg/mL.

As to `OC(c1ccccc1)c1nccc2ccccc12` (stereo unspecified), the kinetic solubility was more than 35.3 µg/mL. `Cc1cc(Cl)c2cc3ccccc3cc2n1` had a solubility (kinetic) of 0.9 µg/mL (≈ 3.95 µM). The compound `O=C(NCCCc1nc2ccccc2[nH]1)c1cccs1` had a kinetic solubility of 37.4 µg/mL (≈ 131 µM).

The compound `Cc1cc(NS(=O)(=O)c2ccc(NC(=O)CNS(=O)(=O)c3ccccc3)cc2)nc(C)n1` displayed a solubility (kinetic) of 67.3 µg/mL (≈ 142 µM). The same measure for `Cc1cc(NC(=O)CSc2c[nH]c3ccccc23)no1`: more than 43.1 µg/mL; for `Cc1cccc(NC(=O)c2cccnc2)c1C`: 24.1 µg/mL (≈ 107 µM); for `CC(OC(=O)CCc1nc2ccccc2[nH]c1=O)c1ccccc1` (stereo unspecified): 11.9 µg/mL (≈ 36.9 µM). The compound `C=CCn1cnc2scc(-c3ccc(OC)cc3)c2c1=O` returned a solubility (kinetic) of 39 µg/mL (≈ 131 µM).

For `CCNc1nc(NCC)nc(N(C#N)C(C)C)n1`, the solubility (kinetic) was more than 37.4 µg/mL. In turn, `CC(CC(=O)Nc1ccccc1)n1ccnc1` (stereo unspecified) had a solubility (kinetic) of more than 34.4 µg/mL. The same measure for `O=C(COc1ccc(F)cc1Cl)N1CCN(C(=O)c2cccs2)CC1`: more than 57.4 µg/mL; for `O=C(Nc1ccc(OCc2ccccc2Cl)cc1)c1cccnc1`: 1.8 µg/mL (≈ 5.31 µM); for `O=C(CNC(=O)c1cccs1)c1ccc(Cl)cc1`: 26.4 µg/mL (≈ 94.4 µM). The figure for `Cc1ccc(/C(O)=C2\C(=O)C(=O)N(CC(C)O)C2c2ccccn2)cc1` (stereo unspecified) is more than 52.9 µg/mL; for `O=C1CN(C(=O)COC(=O)c2ccc(Cl)c(S(=O)(=O)N3CCCCC3)c2)c2ccccc2N1` it is 4.7 µg/mL (≈ 9.55 µM); for `CNc1nc2c(C)cccn2c(=O)c1C=Nc1ccc(OC)cc1` it is 0.9 µg/mL (≈ 2.79 µM). The same measure for `O=C(OCC(=O)N1CCCC1)c1ccc(Cl)c([N+](=O)[O-])c1`: 31.8 µg/mL (≈ 102 µM); for `CCCCNC(=O)C1CCN(S(=O)(=O)N2CCOCC2)CC1`: more than 50 µg/mL; for `CCc1noc(C)c1C(=O)OCC(=O)c1ccc(OC)c(OC)c1`: 46 µg/mL (≈ 138 µM). On to `O=S(=O)(c1ccc(Cl)nc1)N1CCCCC1`, for which the kinetic solubility was more than 39.1 µg/mL.

Consider `COC(=O)C1CCN(C(=O)c2ccc(OC)c(S(=O)(=O)N3CCCc4ccccc43)c2)CC1`, for which the solubility (kinetic) was more than 70.9 µg/mL. `CCc1cc(=O)[nH]c(SCCc2ccccc2)n1` showed a kinetic solubility of more than 39.1 µg/mL.

`O=C(O)c1ccn(CSc2cc(Cl)ccc2Cl)n1` registered a solubility (kinetic) of more than 45.5 µg/mL. The figure for `CC(=O)N(C)c1ccc(NC(=O)Cc2cccc3ccccc23)cc1` is 3.9 µg/mL (≈ 11.7 µM); for `NC(CCCCCP(=O)(c1ccccc1)c1ccccc1)C(=O)O` (stereo unspecified) it is 40.4 µg/mL (≈ 117 µM).

`Cc1ccccc1C(=O)Nc1ccccc1C(=O)NC1CC1` registered a solubility (kinetic) of more than 44.2 µg/mL.

For `O=c1c2ccccc2nc(/C=C/c2ccc(O)cc2)n1-c1ccccc1O`, the kinetic solubility was 5.2 µg/mL (≈ 14.6 µM). The compound `COc1cc(/C=C/C(=O)OCC(=O)Nc2cccc(F)c2)ccc1O` displayed a kinetic solubility of 24.6 µg/mL (≈ 71.2 µM). Compared with the last compound, the solubility kinetic is about 4.7-fold higher.

The compound `Cc1ccc(C2=Nc3ccccc3N=C(C(Cl)Cl)C2)cc1` yielded a solubility (kinetic) of 3.1 µg/mL (≈ 9.77 µM). Against the preceding compound, the solubility kinetic is about 7.9-fold lower. The figure for `Cc1nc(N)ncc1C(=O)Nc1ccccc1` is 19 µg/mL (≈ 83.2 µM); for `CCOC(Cn1cc(C)c(=O)[nH]c1=O)OCC` it is more than 36.3 µg/mL; for `Cc1cc(C)cc(NC(=O)NC2CCCCCCC2)c1` it is 1 µg/mL (≈ 3.64 µM). The same measure for `O=C(Nc1cccc([N+](=O)[O-])c1)C1CC(=O)N(C2CCCCC2)C1` (stereo unspecified): 48.5 µg/mL (≈ 146 µM). The figure for `Cc1cc(C)c(OCCN(C)C)c(Cl)c1.O=C(O)C(=O)O` is more than 47.7 µg/mL; for `COc1ccc(-n2c(C)c(C)c3c(NCCO)ncnc32)cc1` it is more than 46.9 µg/mL; for `CCN(CC)CCN=Cc1c(O)n(Cc2ccco2)c(=O)[nH]c1=O` it is more than 50.2 µg/mL. `COc1ccc(OCCn2cnc(Cl)c2Cl)cc1` registered a solubility (kinetic) of 41.1 µg/mL (≈ 143 µM).

As to `CC(C)CCn1cnc2c1c(=O)[nH]c(=O)n2Cc1ccccc1`, the solubility (kinetic) came out at 29.8 µg/mL (≈ 95.4 µM).

`N#CCCN(C(=O)COC(=O)CCC(=O)c1cccs1)c1ccccc1` displayed a solubility (kinetic) of more than 55.6 µg/mL. The figure for `COc1ccc(/C=C/C(=O)NC(=S)N2CCSCC2)cc1` is 11.1 µg/mL (≈ 34.4 µM). The figure for `CC(C)(C)NC(=O)COC(=O)CCC(=O)c1cccs1` is more than 44.6 µg/mL. The same measure for `COc1ccc(OC)c2nc(-c3cccnc3)ccc12`: more than 39.9 µg/mL. Regarding `Cc1cccc(NC(=O)N2C[C@H]3C[C@@H](C2)c2cccc(=O)n2C3)c1`, the kinetic solubility is more than 48.5 µg/mL. The same measure for `COc1ccccc1NC(=O)Nc1cccc(C)n1`: 0.4 µg/mL (≈ 1.55 µM). Consider `NC(=O)C1CCN(C(=O)CCn2c(=O)oc3ccccc32)CC1`, for which the kinetic solubility was more than 47.6 µg/mL. The figure for `Cn1c2ccc(F)cc2c2ncn(Cc3ccccn3)c(=O)c21` is 7.9 µg/mL (≈ 25.6 µM); for `CC(=O)NC(CC(=O)OCc1ccc([N+](=O)[O-])cc1)c1ccccc1` (stereo unspecified) it is more than 51.4 µg/mL; for `CC(O)CNc1nc2c(c(=O)n(Cc3ccccc3)c(=O)n2C)n1C` (stereo unspecified) it is more than 51.5 µg/mL. With `CCC(=O)c1ccc(SC(=O)N(C)C)cc1O`, the solubility (kinetic) stood at 33.7 µg/mL (≈ 133 µM).

In turn, `Cc1ccnc(NC(=O)CCc2c[nH]c3ccccc23)c1` gave a solubility (kinetic) of more than 41.9 µg/mL.

`COC(=O)c1c(C)[nH]c(C(=O)C(C)OC(=O)C2CC2)c1C` (stereo unspecified): the kinetic solubility came out at 39.7 µg/mL (≈ 135 µM). The same measure for `COc1cc(CN2CCCCCC2)cc([N+](=O)[O-])c1O`: 35.6 µg/mL (≈ 127 µM); for `Cc1ccc(C(=O)Nc2ccc3c(c2)OCCO3)cc1S(=O)(=O)N1CCOCC1`: 41.6 µg/mL (≈ 99.4 µM); for `CCOc1ccc(NC(=O)C(=O)NCc2ccncc2)cc1`: 12.5 µg/mL (≈ 41.8 µM).

Compound `COc1cc(C)nc(NC(=S)N(C)C(=O)c2ccccc2)n1` yielded a solubility (kinetic) of 0.5 µg/mL (≈ 1.58 µM). The figure for `O=C(O)/C=C/C(=O)Nc1ccc(O)cc1` is more than 31.1 µg/mL. The same measure for `CN(CCOC(=O)c1ccc2c(c1)OCO2)C(C)(C)C.Cl`: 41.7 µg/mL. The figure for `O=C(COC(=O)c1ccncc1)Nc1cccc2ccccc12` is 40.3 µg/mL (≈ 132 µM); for `Cc1cc(NC(=O)C(=O)c2cn(C)c3ccccc23)no1` it is 0.6 µg/mL (≈ 2.12 µM); for `COc1cc(N)ccc1-c1cc2ccccc2oc1=O` it is more than 40.1 µg/mL. `CCOC(=O)C1=C(C)NC(C)=C(C(=O)OCC)C1C(=O)OCC(=O)NCCc1ccccc1` showed a kinetic solubility of more than 68.8 µg/mL. The same measure for `Cc1nc(SCCOc2ccccc2F)[nH]c(=O)c1Cc1ccccc1`: 0.6 µg/mL (≈ 1.62 µM); for `NC(=S)NC1CC2C=CC1C2` (stereo unspecified): more than 25.2 µg/mL. The same measure for `COCCNc1nc(SC)nc2sc3c(c12)CCN(C)C3`: 46.5 µg/mL (≈ 143 µM); for `CC1(CCC(=O)N2CCCC(Nc3ccc(F)cc3)C2)CC1` (stereo unspecified): more than 45.7 µg/mL; for `OCc1ccnc2oc3ccccc3c12`: 28.8 µg/mL (≈ 145 µM). In turn, `O=C(Nc1nnc2n1CCS2)c1ccco1` had a solubility (kinetic) of more than 35.4 µg/mL. The same measure for `Cc1csc(NC(=O)C2CC(=O)N(c3ccc(C)c(C)c3)C2)n1` (stereo unspecified): 42.4 µg/mL (≈ 129 µM); for `N#Cc1cc2c(=O)n3ccccc3nc2n(-c2ccc(Cl)cc2)c1=O`: 1.4 µg/mL (≈ 4.01 µM); for `O=C(CCCc1ccccc1)Nc1ccccc1[N+](=O)[O-]`: 15.2 µg/mL (≈ 53.5 µM). The figure for `CCCCc1nnc(SCC(=O)Nc2nccs2)n1CC` is more than 48.8 µg/mL; for `CCOc1cccc(CNc2nnnn2C)c1` it is more than 35 µg/mL; for `COC(=O)[C@@H](NC(=O)NC1CCCCC1C)C(C)C` (stereo partly specified) it is more than 40.6 µg/mL. The same measure for `CC1CC(C)CN(C(=O)c2cccc3c2-c2ccccc2C3=O)C1` (stereo unspecified): 5 µg/mL (≈ 15.7 µM); for `S=C(/N=c1/sccn1Cc1ccccc1)NC1CC1`: 5.4 µg/mL (≈ 18.7 µM). Compound `N#CCCN(Cc1ccccc1)C(=S)Nc1ccc(F)cc1` gave a solubility (kinetic) of 28.8 µg/mL (≈ 91.9 µM).

For `CC(C)Cc1cc(C(=O)Nc2ccc(Br)cc2)no1`, the solubility (kinetic) is less than 0.3 µg/mL.

Regarding `CC1CN(C(=S)NC2CCCC2)CC(C)O1` (stereo unspecified), the kinetic solubility was more than 36.4 µg/mL. The same measure for `COC(=O)NC1c2ccccc2Oc2ccc(C)cc21` (stereo unspecified): less than 0.6 µg/mL; for `Cn1cccc1CNC(=S)Nc1cc(F)cc(F)c1`: more than 42.2 µg/mL. `Nc1cccc(Nc2ccccc2)c1` displayed a kinetic solubility of more than 27.6 µg/mL. The same measure for `CC(C)NC(NC(=O)/C=C/c1ccccc1)C(Cl)(Cl)Cl` (stereo unspecified): 44.7 µg/mL (≈ 133 µM). The same measure for `COc1ccccc1OCC(=O)Nc1ncc(C)s1`: 41.2 µg/mL (≈ 148 µM); for `C=CCn1c(O)c(N=O)c2ccccc21`: more than 30.3 µg/mL. `O=C1Nc2ccccc2C1c1ncc(C(F)(F)F)cc1Cl` (stereo unspecified) gave a kinetic solubility of more than 46.9 µg/mL. The same measure for `Cc1cccc(C(=O)NCC(=O)N2CCN(c3ccccn3)CC2)c1`: more than 50.8 µg/mL. For `CNC(=O)c1c(O)c2cccc3c2n(c1=O)CCC3`, the kinetic solubility was determined as 2.6 µg/mL (≈ 10.1 µM). Compound `O=C(O)c1cccnc1SCc1ccccc1Cl` yielded a kinetic solubility of more than 42 µg/mL. `NS(=O)(=O)c1ccc(CCNC(=O)CCc2ccccc2)cc1` showed a solubility (kinetic) of 46.4 µg/mL (≈ 140 µM). The same measure for `CC1CCCCC12NC(=O)N(CC(=O)OCc1ccccc1F)C2=O` (stereo unspecified): 17.2 µg/mL (≈ 49.4 µM). The figure for `CCOC(=O)C(C)Oc1ccc(NC(=O)C(Cl)(Cl)Cl)cc1` (stereo unspecified) is 51.1 µg/mL (≈ 144 µM). For `COC(c1ccccc1)c1nc2ccccc2[nH]c1=O` (stereo unspecified), the solubility (kinetic) was more than 39.9 µg/mL. The figure for `CC(Sc1nncn1C)C(=O)Nc1ccc(N2CCCCC2)cc1` (stereo unspecified) is more than 51.8 µg/mL; for `O=S(=O)(c1cccc2cccnc12)N1CCCCC1` it is more than 41.5 µg/mL. The figure for `Cc1ccc(-c2nsc(SCC(=O)NCC3CCCO3)n2)cc1` (stereo unspecified) is more than 52.4 µg/mL; for `COc1cccc(CNc2nc3ccccc3n2C)c1O` it is 6.2 µg/mL (≈ 21.9 µM); for `COc1ccc(CNC(=O)Cc2cccs2)cc1` it is 26.9 µg/mL (≈ 103 µM). The same measure for `CC(C)n1c(N)c(C#N)c2ccc([N+](=O)[O-])cc2c1=O`: 1.6 µg/mL (≈ 5.88 µM); for `O=C(Cc1cccc2ccccc12)Nc1c(F)cccc1F`: 1.2 µg/mL (≈ 4.04 µM). The compound `Cc1ccc(C(=O)NCCNC(=O)c2ccc(C)nc2)cc1` came in with a kinetic solubility of more than 44.6 µg/mL.

Source of the values: PubChem BioAssay AID1996.
